Experimental data reported in ChEMBL document CHEMBL1149587 (2007).

What was measured:
Format in all cases: functional
Rattus norvegicus [1] = assay: Elimination of D-xylose from 30 days old Sprague-Dawley suckling rat urine at 4 mg, po
Rattus norvegicus [2] = assay: Elimination of D-xylose from 18 days old Sprague-Dawley suckling rat urine at 4 mg, po
Rattus norvegicus [3] = assay: Elimination of D-xylose from 15 days old Sprague-Dawley suckling rat urine at 4 mg, po

## OC[C@H]1O[C@@H](O[C@H]2C(O)OC[C@@H](O)[C@@H]2O)[C@H](O)[C@@H](O)[C@H]1O (some centres undefined)
Rattus norvegicus [1]
  Activity: 9.43%
Rattus norvegicus [2]
  Activity: 20.71%
Rattus norvegicus [3]
  Activity: 23.1%

## OC[C@H]1O[C@@H](O[C@@H]2COC(O)[C@H](O)[C@H]2O)[C@H](O)[C@@H](O)[C@H]1O (some centres undefined)
Rattus norvegicus [1]
  Activity: 3.05%
Rattus norvegicus [2]
  Activity: 6.99%
Rattus norvegicus [3]
  Activity: 23.66%

## OC[C@H]1O[C@@H](O[C@H]2[C@H](O)COC(O)[C@@H]2O)[C@H](O)[C@@H](O)[C@H]1O (some centres undefined)
Rattus norvegicus [1]
  Activity: 19.39%
Rattus norvegicus [2]
  Activity: 20.63%
Rattus norvegicus [3]
  Activity: 23.3%
